What was measured:
[1] = system: mesenteric artery of a rabbit; test: Relaxation of Mesenteric Artery (KCl-contracted spiral strip); parameters: species or system rabbit of Japanese local variety; settings: Oryctolagus cuniculus; concentration of the hydrochloride attaining 50% of complete relaxation; rabbit mesenteric artery contracted with KCl; read-out: ED50 (the source's name)
Experimental: A rabbit of Japanese local variety weighing about 3 kg was subjected to blood-letting to death. Then, abdomen of the rabbit was dissected to pick up a mesenteric artery. […] Thus, the shrinkage and relaxation of the artery was ready to be measured as a load on the transducer. To the organ bath, KCl was added in an amount which makes the artery shrink at a half length that in 15 to 20 mM aqueous solution. Then, hydrochlorides of the compounds of the present invention were added to the organ bath to observe relaxation effect on the artery.
Effect of the compounds of the present invention on relaxation of mesenteric artery was examined according to the method as mentioned hereinbefore.

[2] = system: male spontaneously hypertensive rats (SHR); test: Reduction of Blood Pressure (systolic, tail plethysmographic method, oral); assay type: in vivo, rat (SHR, Wister Kyoto)
Experimental: Male spontaneously hypertensive rats (SHR, Wister Kyoto) weighing 300 to 350 g were used. Systolic blood pressure was measured indirectly by the tail plethysmographic method in conscious SHR, just prior to, and 1, 2, 4 and 6 hours after oral administration of test drugs. Test drugs, dissolved in deionized water, were administered orally in a volume of 10 ml-solution/kg-rat. Reduction in systolic blood pressure (ΔP, mmHg) was calculated by substracting a systolic blood pressure after administration from that just prior to administration.
Effect of the compounds of the present invention on reduction of blood pressure was examined according to the method as mentioned hereinbefore.

| Compound | EC50 [1] [µM] | ΔPmax (maximally reduced blood pressure) ([2]; 50 mg/kg) [mmHg] | ΔPmax (maximally reduced blood pressure) ([2]; 100 mg/kg) [mmHg] |
| --- | --- | --- | --- |
| CC1NCCCN(S(=O)(=O)c2cccc3cnccc23)C1C (stereo not drawn) [Compound (5), 1-(5-isoquinolinesulfonyl)-2,3-dimethylhomopiperazine] | 8 | – | – |
| CC1(C)CN(S(=O)(=O)c2cccc3cnccc23)CCCN1 [Compound (6), 1-(5-isoquinolinesulfonyl)-3,3-dimethylhomopiperazine] | 10 | – | – |
| O=S(=O)(c1cccc2cnccc12)N1CCCNC(c2ccccc2)C1 (stereo not drawn) [Compound (10), 1-(5-isoquinolinesulfonyl)-3-phenylhomopiperazine] | 12 | – | – |
| CCCC1CNCCN(S(=O)(=O)c2cccc3cnccc23)C1 (stereo not drawn) [Compound (13), 1-(5-isoquinolinesulfonyl)-6-propylhomopiperazine] | 11 | – | – |
| CCCCCCC1CNCCN(S(=O)(=O)c2cccc3cnccc23)C1 (stereo not drawn) [Compound (16), 1-(5-isoquinolinesulfonyl)-6-hexylhomopiperazine] | 12 | – | – |
| CN1CCCN(S(=O)(=O)c2cccc3cnccc23)CC1 [Compound (19), 1-(5-isoquinolinesulfonyl)-4-methylhomopiperazine] | 8 | – | – |
| CCN1CCCN(S(=O)(=O)c2cccc3cnccc23)CC1 [Compound (20), 1-(5-isoquinolinesulfonyl)-4-ethylhomopiperazine] | 11 | – | – |
| CCCCN1CCCN(S(=O)(=O)c2cccc3cnccc23)CC1 [Compound (22), 1-(5-isoquinolinesulfonyl)-4-butylhomopiperazine] | 13 | – | – |
| CCCCCCN1CCCN(S(=O)(=O)c2cccc3cnccc23)CC1 [Compound (23), 1-(5-isoquinolinesulfonyl)-4-hexylhomopiperazine] | 12 | – | – |
| CC(C)C(N)CNS(=O)(=O)c1cccc2c(Cl)nccc12 (stereo not drawn) [Compound (28), N-(2-amino-3-methylbutyl)-1-chloro-5-isoquinolinesulfonamide] | 10 | 58 | – |
| CCCCN(CCCC)CCCNS(=O)(=O)c1cccc2c(Cl)nccc12 [Compound (29), N-(3-di-n-butylaminopropyl)-1-chloro-5-isoquinolinesulfonamide] | 11 | 43 | – |
| CN(CCNS(=O)(=O)c1cccc2c(Cl)nccc12)C1CCCCC1 [Compound (30), N-[2-(N-cyclohexyl-N-methylamino)ethyl]-1-chloro-5-isoquinolinesulfonamide] | 13 | 54 | – |
| CCCCC(CNC(=N)N)NS(=O)(=O)c1cccc2c(Cl)nccc12 (stereo not drawn) [Compound (34), N-(1-guanidinomethylpentyl)-1-chloro-5-isoquinolinesulfonamide] | 8 | – | 45 |
| CC(C)C(CNS(=O)(=O)c1cccc2c(Cl)nccc12)NC(=N)N (stereo not drawn) [Compound (35), N-(2-guanidino-3-methylbutyl)-1-chloro-5-isoquinolinesulfonamide] | 8 | – | 33 |
| CC(CNC(=N)N)CNS(=O)(=O)c1cccc2c(Cl)nccc12 (stereo not drawn) [Compound (36), N-(3-guanidino-2-methylpropyl)-1-chloro-5-isoquinolinesulfonamide] | 7 | – | 48 |
| CC(CCNS(=O)(=O)c1cccc2c(Cl)nccc12)CNC(=N)N (stereo not drawn) [Compound (37), N-(4-guanidino-3-methylbutyl)-1-chloro-5-isoquinolinesulfonamide] | 11 | – | 31 |
| CC1CN(S(=O)(=O)c2cccc3c(Cl)nccc23)CCN1 (stereo not drawn) [Compound (38), 1-(1-chloro-5-isoquinolinesulfonyl)-3-methylpiperazine] | 17 | – | 45 |
| CCC1CN(S(=O)(=O)c2cccc3c(Cl)nccc23)CCN1 (stereo not drawn) [Compound (39), 1-(1-chloro-5-isoquinolinesulfonyl)-3-ethylpiperazine] | 18 | – | 48 |
| CC(C)CC1CN(S(=O)(=O)c2cccc3c(Cl)nccc23)CCN1 (stereo not drawn) [Compound (40), 1-(1-chloro-5-isoquinolinesulfonyl)-3-isobutylpiperazine] | 13 | – | 51 |
| CC1CN(S(=O)(=O)c2cccc3c(Cl)nccc23)C(C)CN1 (stereo not drawn) [Compound (41), 1-(1-chloro-5-isoquinolinesulfonyl)-2,5-dimethylpiperazine] | 14 | – | 39 |
| CN1CCN(S(=O)(=O)c2cccc3c(Cl)nccc23)CC1 [Compound (42), 1-(1-chloro-5-isoquinolinesulfonyl)-4-methylpiperazine] | 21 | – | 56 |
| NCCNS(=O)(=O)c1cccc2c(O)nccc12 [Compound (47), N-(2-aminoethyl)-1-hydroxy-5-isoquinolinesulfonamide] | 10 | 43 | – |
| CCNCCNS(=O)(=O)c1cccc2c(Cl)nccc12 [Compound (71), N-(2-ethylaminoethyl)-1-chloro-5-isoquinolinesulfonamide] | 12 | – | – |
| CCCNCCNS(=O)(=O)c1cccc2c(Cl)nccc12 [Compound (72), N-(2-propylaminoethyl)-1-chloro-5-isoquinolinesulfonamide] | 11 | – | – |
| CCCCNCCNS(=O)(=O)c1cccc2c(Cl)nccc12 [Compound (73), N-(2-butylaminoethyl)-1-chloro-5-isoquinolinesulfonamide] | 8 | – | – |
| NCCNS(=O)(=O)c1cccc2cnccc12 [compound 1, reference compound] | – | – | 31 |
| CC1CN(S(=O)(=O)c2cccc3cnccc23)CCN1 (stereo not drawn) [compound 3, reference compound] | – | – | 10 |

More lines, in order of falling EC50 [1], values ahead:

| EC50 [1] [µM] | Compound | ΔPmax (maximally reduced blood pressure) ([2]; 50 mg/kg) [mmHg] | ΔPmax (maximally reduced blood pressure) ([2]; 100 mg/kg) [mmHg] |
| --- | --- | --- | --- |
| 7 | NCCCCNS(=O)(=O)c1cccc2c(Cl)nccc12 [Compound (25), N-(4-aminobuthyl)-1-chloro-5-isoquinolinesulfonamide] | – | 50 |
| 6 | CCC1CN(S(=O)(=O)c2cccc3cnccc23)CCCN1 (stereo not drawn) [Compound (7), 1-(5-isoquinolinesulfonyl)-3-ethylhomopiperazine] | – | – |
| 5 | NCCNS(=O)(=O)c1cccc2c(Cl)nccc12 [Compound (24), N-(2-aminoethyl)-1-chloro-5-isoquinolinesulfonamide] | 70 | – |
| 5 | CC1CN(S(=O)(=O)c2cccc3c(Cl)nccc23)C(C)CN1C(=N)N (stereo not drawn) [Compound (46), 1-(1-chloro-5-isoquinolinesulfonyl)-4-amidino-2,5-dimethylpiperazine] | – | 41 |
| 4 | CC1CNCCCN1S(=O)(=O)c1cccc2cnccc12 (stereo not drawn) [Compound (2), 1-(5-isoquinolinesulfonyl)-2-methylhomopiperazine] | – | – |
| 4 | CC(C)CC1CN(S(=O)(=O)c2cccc3cnccc23)CCCN1 (stereo not drawn) [Compound (9), 1-(5-isoquinolinesulfonyl)-3-isobutylhomopiperazine] | – | – |
| 4 | CC(CN)NS(=O)(=O)c1cccc2c(Cl)nccc12 (stereo not drawn) [Compound (26), N-(2-amino-1-methylethyl)-1-chloro-5-isoquinolinesulfonamide] | 53 | – |
| 4 | CCCCC(CN)NS(=O)(=O)c1cccc2c(Cl)nccc12 (stereo not drawn) [Compound (27), N-(1-aminomethylpentyl)-1-chloro-5-isoquinolinesulfonamide] | 45 | – |
| 4 | N=C(N)NCCCCNS(=O)(=O)c1cccc2c(Cl)nccc12 [Compound (32), N-(4-guanidinobutyl)-1-chloro-5-isoquinolinesulfonamide] | – | 38 |
| 4 | CC(CNC(=N)N)NS(=O)(=O)c1cccc2c(Cl)nccc12 (stereo not drawn) [Compound (33), N-(2-guanidino-1-methylethyl)-1-chloro-5-isoquinolinesulfonamide] | – | 51 |
| 4 | N=C(N)N1CCCN(S(=O)(=O)c2cccc3c(Cl)nccc23)CC1 [Compound (44), 1-(1-chloro-5-isoquinolinesulfonyl)-4-amidinohomopiperazine] | – | 25 |
| 3 | CCC1CNCCN(S(=O)(=O)c2cccc3cnccc23)C1 (stereo not drawn) [Compound (12), 1-(5-isoquinolinesulfonyl)-6-ethylhomopiperazine] | – | – |
| 3 | CC1CN(C(=N)N)CCN1S(=O)(=O)c1cccc2c(Cl)nccc12 (stereo not drawn) [Compound (45), 1-(1-chloro-5-isoquinolinesulfonyl)-4-amidino-2-methylpiperazine] | – | 37 |
| 2 | N=C(N)N1CCN(S(=O)(=O)c2cccc3c(Cl)nccc23)CC1 [Compound (43), 1-(1-chloro-5-isoquinolinesulfonyl)-4-amidinopiperazine] | – | 32 |
| 1.6 | CC1CNCCN(S(=O)(=O)c2cccc3cnccc23)C1 (stereo not drawn) [Compound (4), 1-(5-isoquinolinesulfonyl)-6-methylhomopiperazine] | – | – |
| 1 | O=S(=O)(c1cccc2c(Cl)nccc12)N1CCNCC1 [Compound (75), 1-(1-chloro-5-isoquinolinesulfonyl)piperazine] | – | – |

Reference: patent US4678783A, “Substituted isoquinolinesulfonyl compounds” (Asahi Kasei Kogyo Kabushiki Kaisha, priority 1984, dated 1987)
